Experimental data: article PMC3344910 (Bioorganic & medicinal chemistry, 2012)
Like-named read-outs stand apart in the source and are kept apart here.

What was measured:
[1] = target: T1, KOP receptors (Homo sapiens, UniProt P41145); experiment: biochemical; type: biochemical
[2] = target: T1, KOP receptors; conditions: compared to 2 (U50,488) ref 32; cited from earlier work
[3] = target: T1, KOP receptors; conditions: compared to 1 ref 48; cited from earlier work
[4] = target: human MOP receptor (Homo sapiens, UniProt P35372); experiment: biochemical; type: binding
Sequence of human MOP receptor (P35372 whole entry): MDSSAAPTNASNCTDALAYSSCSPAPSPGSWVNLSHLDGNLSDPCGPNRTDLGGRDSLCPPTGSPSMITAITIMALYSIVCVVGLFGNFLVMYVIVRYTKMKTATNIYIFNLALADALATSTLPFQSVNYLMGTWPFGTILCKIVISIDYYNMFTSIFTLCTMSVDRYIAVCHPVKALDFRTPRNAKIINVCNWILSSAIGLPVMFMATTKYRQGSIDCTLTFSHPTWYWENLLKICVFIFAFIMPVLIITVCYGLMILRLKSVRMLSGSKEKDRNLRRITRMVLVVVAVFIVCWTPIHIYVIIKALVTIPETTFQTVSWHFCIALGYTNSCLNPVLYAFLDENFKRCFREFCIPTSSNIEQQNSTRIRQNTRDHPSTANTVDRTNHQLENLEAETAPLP

[5] = target: human DOP receptor (Homo sapiens, UniProt P41143); experiment: biochemical; type: binding
Sequence of human DOP receptor (P41143 whole entry): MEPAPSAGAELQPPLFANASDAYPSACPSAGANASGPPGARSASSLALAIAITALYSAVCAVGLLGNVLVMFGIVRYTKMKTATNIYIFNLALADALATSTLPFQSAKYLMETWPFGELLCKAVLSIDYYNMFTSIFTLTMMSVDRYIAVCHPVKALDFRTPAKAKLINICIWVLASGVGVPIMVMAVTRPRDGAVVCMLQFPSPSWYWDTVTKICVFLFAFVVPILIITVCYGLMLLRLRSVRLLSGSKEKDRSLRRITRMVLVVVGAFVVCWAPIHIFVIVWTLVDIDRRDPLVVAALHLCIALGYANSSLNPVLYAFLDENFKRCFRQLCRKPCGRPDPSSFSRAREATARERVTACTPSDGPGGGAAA

[6] = target: T1, KOP receptors; experiment: biochemical; type: binding
[7] = target: T1, KOP receptors; conditions: read-out: KOP Ki, previous report; cited from earlier work
[8] = target: T1, KOP receptors; type: cell-based

T1 sequence (P41145 whole entry): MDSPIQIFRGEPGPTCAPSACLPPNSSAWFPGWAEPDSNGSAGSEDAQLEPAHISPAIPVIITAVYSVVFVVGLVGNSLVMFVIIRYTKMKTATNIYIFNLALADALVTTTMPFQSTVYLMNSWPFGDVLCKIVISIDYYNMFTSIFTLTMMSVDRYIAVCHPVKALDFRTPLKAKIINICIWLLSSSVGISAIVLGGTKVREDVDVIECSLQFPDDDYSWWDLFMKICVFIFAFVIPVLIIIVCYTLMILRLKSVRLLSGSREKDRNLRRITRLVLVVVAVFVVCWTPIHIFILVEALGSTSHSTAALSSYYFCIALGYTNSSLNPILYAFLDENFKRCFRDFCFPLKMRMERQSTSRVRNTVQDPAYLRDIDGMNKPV

## COC(=O)[C@@H]1C[C@H](OC(C)=O)C(=O)[C@H]2[C@@]1(C)CC[C@H]1C(=O)O[C@@H](c3ccoc3)C[C@]21C [Compound 3, (2R,4aR,6aR,7R,9S,10aS,10bR)-methyl 9-acetoxy-2-(furan-3-yl)-6a,10b-dimethyl-4,10-dioxododecahydro-1H-benzo[f]isochromene-7-carboxylate]
[1]
  less potent than 1 in the [35S]GTP-γ-S assay: 18 fold
[2]
  Emax, [35S]GTP-γ-S assay, previous report: 73 ± 6
[3]
  Emax, β-arrestin 2 DiscoveRx assay: 126 ± 10

## COC(=O)[C@@H]1C[C@H](OC(C)=O)C(=O)[C@H]2[C@@]1(C)CC[C@H]1C(=O)OC(/C=C\c3ccoc3)C[C@]21C (stereo partly drawn) [Compound 9, (4aR,6aR,7R,9S,10aS,10bR)-methyl 9-acetoxy-2-((Z)-2-(furan-3-yl)vinyl)-6a,10b-dimethyl-4,10-dioxododecahydro-1H-benzo[f]isochromene-7-carboxylate]
[4]
  Ki: 2600 nM
[5]
  Ki: > 10000 nM
[5]; read-out: DOP percent of control produced by the 10 μM test drug
  remaining activity at 10 µM: 94%
[6]
  Ki: 30 ± 4 nM
  higher affinity for the KOP receptor compared to trans analogue 8: ~40 fold
[1]
  EC50: 1370 nM
[1]; read-out: KOP Emax ± SD, stimulation of [35S]GTP-γ-S binding
  Emax: 105 ± 4%

## COC(=O)[C@@H]1C[C@H](OC(C)=O)C(=O)[C@H]2[C@@]1(C)CC[C@H]1C(=O)O[C@H](C(=O)c3ccccc3)C[C@]21C [Compound 12, (2S,4aR,6aR,7R,9S,10aS,10bR)-methyl 9-acetoxy-2-benzoyl-6a,10b-dimethyl-4,10-dioxododecahydro-1H-benzo[f]isochromene-7-carboxylate]
[1]
  EC50: 1370 ± 180 nM

## COC(=O)[C@@H]1C[C@H](OC(C)=O)C(=O)[C@H]2[C@@]1(C)CC[C@H]1C(=O)O[C@H](C(=O)c3cccc(C(N)=O)c3)C[C@]21C [Compound 19, (2S,4aR,6aR,7R,9S,10aS,10bR)-methyl 9-acetoxy-2-(3-carbamoylbenzoyl)-6a,10b-dimethyl-4,10-dioxododecahydro-1H-benzo[f]isochromene-7-carboxylate]
[6]
  increased KOP affinity compared to 17: approximately 3 fold
[1]
  less potent than 1 in the [35S]GTP-γ-S assay: 18 fold

## COC(=O)[C@@H]1C[C@H](OC(C)=O)C(=O)[C@H]2[C@@]1(C)CC[C@H]1C(=O)O[C@H](C(=O)c3cccc(C#N)c3)C[C@]21C [Compound 20, (2S,4aR,6aR,7R,9S,10aS,10bR)-methyl 9-acetoxy-2-(3-cyanobenzoyl)-6a,10b-dimethyl-4,10-dioxododecahydro-1H-benzo[f]isochromene-7-carboxylate]
[6]
  decreased KOP affinity compared to 19: 6 fold

## COC(=O)[C@@H]1C[C@H](OC(C)=O)C(=O)[C@H]2[C@@]1(C)CC[C@H]1C(=O)O[C@H](C(=O)c3ccco3)C[C@]21C [Compound 23, (2S,4aR,6aR,7R,9S,10aS,10bR)-methyl 9-acetoxy-2-(furan-2-carbonyl)-6a,10b-dimethyl-4,10-dioxododecahydro-1H-benzo[f]isochromene-7-carboxylate]
[7]
  Ki: > 1000 nM

## COC(=O)[C@@H]1C[C@H](OC(C)=O)C(=O)[C@H]2[C@@]1(C)CC[C@H]1C(=O)O[C@H](C(=O)c3ccsc3)C[C@]21C [Compound 26, (2S,4aR,6aR,7R,9S,10aS,10bR)-methyl 9-acetoxy-6a,10b-dimethyl-4,10-dioxo-2-(thiophene-3-carbonyl)dodecahydro-1H-benzo[f]isochromene-7-carboxylate]
[1]
  more potent than 25 as an agonist in the [35S]GTP-γ-S assay: approximately 3 fold

## C/C=C\C(=O)[C@@H]1C[C@]2(C)[C@H]3C(=O)[C@@H](OC(C)=O)C[C@@H](C(=O)OC)[C@]3(C)CC[C@H]2C(=O)O1 [Compound 30, (2S,4aR,6aR,7R,9S,10aS,10bR)-methyl 9-acetoxy-2-((Z)-but-2-enoyl)-6a,10b-dimethyl-4,10-dioxododecahydro-1H-benzo[f]isochromene-7-carboxylate]
[6]
  decrease in KOP affinity compared to 12: 4 fold

## COC(=O)[C@@H]1C[C@H](OC(C)=O)C(=O)[C@H]2[C@@]1(C)CC[C@H]1C(=O)O[C@H](c3ccco3)C[C@]21C [Compound 31, (2S,4aR,6aR,7R,9S,10aS,10bR)-methyl 9-acetoxy-2-(furan-2-yl)-6a,10b-dimethyl-4,10-di-oxododecahydro-1H-benzo[f]isochromene-7-carboxylate]
[6]
  Ki: 8.7 ± 0.4 nM
  increase in affinity at KOP receptors compared to 23: 9 fold
[1]
  less potent than 1 in the [35S]GTP-γ-S assay: 3 fold
[8]
  decrease in potency compared to 1, Ca2+ mobilization: 2 fold
